Laboratory results: ChEMBL document CHEMBL1134238, “Synthesis of metabolically blocked paclitaxel analogues” (Bioorg Med Chem Lett, 2001)
pIC50: −log10 of the molar value.

Columns and labels:
HCT-116 = experiment: Compound was tested for cytotoxicity against human colon tumor cell line (HCT116); format: functional, cell-based
M109 [1] = experiment: Compound was tested in vivo against M109 using Madison murine lung carcinoma (M109) tumor model at 200 mg/kg; format: functional, Mus musculus
[2] = molecular target: Tubulin alpha chain (Sus scrofa) (UniProt P02550); experiment: Compound was tested in vitro for inhibition of tubulin polymerization, expressed as ratio to that obtained for paclitaxel; format: functional; settings: Homo sapiens
Chain of Tubulin alpha chain (Sus scrofa) (P02550 whole entry, looked up): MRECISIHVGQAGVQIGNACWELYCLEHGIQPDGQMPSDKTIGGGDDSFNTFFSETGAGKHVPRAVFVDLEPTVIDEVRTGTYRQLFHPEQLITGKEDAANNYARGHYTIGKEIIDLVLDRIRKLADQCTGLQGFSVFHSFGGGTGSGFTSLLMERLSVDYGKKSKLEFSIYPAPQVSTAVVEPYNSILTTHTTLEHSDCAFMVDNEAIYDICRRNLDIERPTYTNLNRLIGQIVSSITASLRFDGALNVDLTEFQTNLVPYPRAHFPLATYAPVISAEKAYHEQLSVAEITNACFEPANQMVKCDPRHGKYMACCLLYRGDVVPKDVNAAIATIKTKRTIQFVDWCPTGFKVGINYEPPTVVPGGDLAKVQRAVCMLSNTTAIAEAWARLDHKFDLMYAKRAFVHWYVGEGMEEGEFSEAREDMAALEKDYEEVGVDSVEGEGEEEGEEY

M109 [3] = experiment: Compound was tested in vivo against M109 using Madison murine lung carcinoma (M109) tumor model at 32 mg/kg; format: functional, Mus musculus
M109 [4] = experiment: Compound was tested in vivo against M109 using Madison murine lung carcinoma (M109) tumor model at 40 mg/kg; format: functional, Mus musculus

| Structure (SMILES) | pIC50 (HCT-116) | T/C (M109 [1]) | Tubulin polymerization [2] | T/C (M109 [3]) | T/C (M109 [4]) |
| --- | --- | --- | --- | --- | --- |
| CC(=O)O[C@H]1C(=O)[C@@]2(C)C([C@H](OC(=O)c3ccccc3)[C@]3(O)C[C@H](OC(=O)[C@H](O)[C@@H](NC(=O)c4ccccc4)c4ccccc4)C(C)=C1C3(C)C)[C@]1(OC(C)=O)CO[C@@H]1[C@@H](Cl)[C@@H]2O (some centres undefined) | 8.92 | 203% | 0.8 |  |  |
| CC(=O)O[C@H]1C(=O)[C@@]2(C)C([C@H](OC(=O)c3ccccc3)[C@]3(O)C[C@H](OC(=O)[C@H](O)[C@@H](NC(=O)c4ccccc4)c4ccccc4)C(C)=C1C3(C)C)[C@]1(OC(C)=O)CO[C@@H]1[C@@H](Br)[C@@H]2O (some centres undefined) | 8.59 |  | 1.1 |  |  |
| CC(=O)O[C@H]1C(=O)[C@@]2(C)C([C@H](OC(=O)c3ccccc3)[C@]3(O)C[C@H](OC(=O)[C@H](O)[C@@H](NC(=O)OC(C)(C)C)c4ccccc4)C(C)=C1C3(C)C)[C@]1(OC(C)=O)CO[C@@H]1C[C@@H]2O (some centres undefined) | 8.74 |  | 0.7 | 177% |  |
| CC(=O)O[C@H]1C(=O)[C@@]2(C)C([C@H](OC(=O)c3ccccc3)[C@]3(O)C[C@H](OC(=O)[C@H](O)[C@@H](NC(=O)c4ccccc4)c4ccccc4)C(C)=C1C3(C)C)[C@]1(OC(C)=O)CO[C@@H]1[C@@H](F)[C@@H]2O (some centres undefined) | 8.85 |  | 1 |  |  |
| CC(=O)O[C@H]1C(=O)[C@@]2(C)[C@H]([C@H](OC(=O)c3ccccc3)[C@]3(O)C[C@H](OC(=O)[C@H](O)[C@@H](NC(=O)c4ccccc4)c4ccccc4)C(C)=C1C3(C)C)[C@]1(OC(C)=O)CO[C@@H]1C[C@@H]2O [PACLITAXEL] |  |  | 1 |  | 215% |
| CC(=O)O[C@H]1C(=O)[C@@]2(C)C([C@H](OC(=O)c3ccccc3)[C@]3(O)C[C@H](OC(=O)[C@H](O)[C@@H](NC(=O)OC(C)(C)C)c4ccccc4)C(C)=C1C3(C)C)[C@]1(OC(C)=O)CO[C@@H]1[C@@H](F)[C@@H]2O (some centres undefined) | 9.70 |  | 0.6 |  |  |
